Data taken from ChEMBL document CHEMBL5620364, “Structure-affinity relationships of stereoisomers of norbenzomorphan-derived σ2R/TMEM97 modulators” (Eur J Med Chem, 2023).

Experiments:
[1] = target: T1, Sigma intracellular receptor 2 (Homo sapiens, UniProt Q5BJF2); assay: Binding affinity to sigma 2 receptor (unknown origin) assessed as inhibition constant
[2] = target: T2, Sigma non-opioid intracellular receptor 1 (Homo sapiens, UniProt Q99720); assay: Binding affinity to sigma 1 receptor (unknown origin) assessed as inhibition constant
[3] = target: T1, Sigma intracellular receptor 2; assay: Displacement of [3H](+)-ditolylguanidine from human sigma 2 receptor transfected in human HEK293T cells assessed as inhibition constant in presence of (+)-pentazocine by radioligand competition binding assay; type: cell-based, HEK293
[4] = target: T2, Sigma non-opioid intracellular receptor 1; assay: Displacement of [3H](+)-pentazocine from sigma 1 receptor in HEK293 cells assessed as inhibition constant by radioligand competition binding assay; type: cell-based
[5] = target: T3, Sigma intracellular receptor 2 (Rattus norvegicus, UniProt Q5U3Y7); assay: biochemical
T3 sequence (Q5U3Y7 whole entry): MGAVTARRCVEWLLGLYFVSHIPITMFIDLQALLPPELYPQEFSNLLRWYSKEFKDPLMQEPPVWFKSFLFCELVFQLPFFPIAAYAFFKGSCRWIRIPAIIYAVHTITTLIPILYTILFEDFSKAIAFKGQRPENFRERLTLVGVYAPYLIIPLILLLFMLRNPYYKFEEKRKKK
Description: Binding affinity to sigma 2 receptor in rat PC12 cells assessed as inhibition constant

T2 sequence (Q99720 whole entry): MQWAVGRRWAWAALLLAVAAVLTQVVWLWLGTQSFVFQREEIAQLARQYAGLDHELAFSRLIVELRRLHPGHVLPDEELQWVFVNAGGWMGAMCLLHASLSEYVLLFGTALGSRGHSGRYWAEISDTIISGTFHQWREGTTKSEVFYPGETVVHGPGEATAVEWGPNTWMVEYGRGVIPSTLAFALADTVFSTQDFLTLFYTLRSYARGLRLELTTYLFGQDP
T1 sequence (Q5BJF2 whole entry): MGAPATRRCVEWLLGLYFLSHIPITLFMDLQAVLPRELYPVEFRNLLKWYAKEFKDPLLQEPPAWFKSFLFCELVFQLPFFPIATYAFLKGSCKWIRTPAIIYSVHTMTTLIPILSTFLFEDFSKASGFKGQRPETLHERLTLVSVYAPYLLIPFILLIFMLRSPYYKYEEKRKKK

Ki [1]	Ki [2]	Ki [3]	Ki [4]	Ki [5]	Structure (SMILES)
60.9 nM	173 nM	–	–	–	CNCCN1CCN(c2ccc3c(c2)[C@@H]2C[C@H]3CCN2C(=O)OCc2ccccc2)CC1
9.2 nM	–	9.2 nM	37.7 nM	–	O=C(OCc1ccccc1)N1CC[C@@H]2C[C@H]1c1cc(N3CCN(CCCF)CC3)ccc12
–	–	75.3 nM	510 nM	–	O=C(OCc1ccccc1)N1CC[C@@H]2C[C@H]1c1cc(N3CCN(CCO)CC3)ccc12
397 nM	–	–	57.6 nM	–	O=C(CCc1ccccc1)N1CC[C@@H]2C[C@H]1c1cc(N3CCN(CCCF)CC3)ccc12
12.4 nM	197 nM	–	–	–	CCN(CC)C(=O)CCN1CCN(c2ccc3c(c2)[C@@H]2C[C@H]3CCN2C(=O)OCc2ccccc2)CC1
–	–	57.8 nM	118 nM	–	CN(C)CCCOC1CN(c2ccc3c(c2)[C@@H]2C[C@H]3CCN2C(=O)OCc2ccccc2)C1
–	–	12.4 nM	32.9 nM	–	O=C(OCc1ccccc1)N1CC[C@@H]2C[C@H]1c1cc(N3CCN(C4CCC4)CC3)ccc12
–	–	22.2 nM	11.7 nM	–	O=C(OCc1ccccc1)N1CC[C@@H]2C[C@H]1c1cc(N3CCCN(CCCF)CC3)ccc12
–	–	20.9 nM	67.9 nM	–	O=C(OCc1ccc(C(F)(F)F)cc1)N1CC[C@@H]2C[C@H]1c1cc(N3CCN(CCCF)CC3)ccc12
52 nM	83.4 nM	–	–	–	CN(C)CCN1CCN(c2ccc3c(c2)[C@@H]2C[C@H]3CCN2C(=O)OCc2ccccc2)CC1
53.3 nM	–	–	185 nM	–	O=C(/C=C/c1ccccc1)N1CC[C@@H]2C[C@H]1c1cc(N3CCN(CCCF)CC3)ccc12
–	–	129 nM	312 nM	–	COCCN1CCN(c2ccc3c(c2)[C@H]2C[C@@H]3CCN2C(=O)OCc2ccccc2)CC1
–	–	201 nM	1740 nM	–	O=C(OCc1ccccc1)N1CC[C@H]2C[C@@H]1c1cc(N3CCN(CCO)CC3)ccc12
8 nM	59.2 nM	–	–	–	COCCCN1CCN(c2ccc3c(c2)[C@@H]2C[C@H]3CCN2C(=O)OCc2ccccc2)CC1
–	–	–	–	248 nM	Clc1ccc2c(c1)C1CC2CCCN1CCc1ccccc1 (configuration not stated)
–	–	17.7 nM	70.4 nM	–	O=C(OCc1ccccc1)N1CC[C@@H]2C[C@H]1c1cc(N3CC4CCC(C3)N4CCCF)ccc12
–	–	27.1 nM	94.9 nM	–	O=C(OCc1ccc(Cl)cc1)N1CC[C@@H]2C[C@H]1c1cc(N3CCN(CCCF)CC3)ccc12
31.5 nM	–	–	140 nM	–	CN(C)C1CCN(c2ccc3c(c2)[C@@H]2C[C@H]3CCN2C(=O)OCc2ccccc2)CC1
110 nM	189 nM	–	–	–	CNCCC(=O)N1CCN(c2ccc3c(c2)[C@@H]2C[C@H]3CCN2C(=O)OCc2ccccc2)CC1
24.4 nM	–	–	94.1 nM	–	CN1CC(CN2CCN(c3ccc4c(c3)[C@@H]3C[C@H]4CCN3C(=O)OCc3ccccc3)CC2)C1
–	–	47 nM	193 nM	–	COCCN1CCN(c2ccc3c(c2)[C@@H]2C[C@H]3CCN2C(=O)OCc2ccccc2)CC1
–	–	24.3 nM	81.7 nM	–	O=C(OCc1ccccc1)N1CC[C@H]2C[C@@H]1c1cc(N3CCN(CCCF)CC3)ccc12
–	–	28.4 nM	50.2 nM	–	CCCCN1C[C@@H]2CN(c3ccc4c(c3)[C@@H]3C[C@H]4CCN3C(=O)OCc3ccccc3)C[C@@H]2C1
–	–	34.3 nM	50.7 nM	–	O=C(OCc1ccccc1)N1CC[C@H]2C[C@@H]1c1cc(N3CCN(C4CCC4)CC3)ccc12
–	–	21.2 nM	17.2 nM	–	O=C(OCc1cccc(F)c1)N1CC[C@@H]2C[C@H]1c1cc(N3CCN(CCCF)CC3)ccc12
35.2 nM	53.1 nM	–	–	–	CN1CC(C(=O)N2CCN(c3ccc4c(c3)[C@@H]3C[C@H]4CCN3C(=O)OCc3ccccc3)CC2)C1
